These results are taken from article PMC10485820 (European Journal of Pharmaceutical Sciences, 2023).

The nature of data set [1]: Mass balance study (CTR20201559). The format is in vivo, human.
Data set [2] can be described thus: Biliary drainage study in rats (unpublished). The format is in vivo.
For a further data set, the target named is T1, OAT3 (Homo sapiens, UniProt Q8TCC7).
T1 sequence (Q8TCC7 1-542): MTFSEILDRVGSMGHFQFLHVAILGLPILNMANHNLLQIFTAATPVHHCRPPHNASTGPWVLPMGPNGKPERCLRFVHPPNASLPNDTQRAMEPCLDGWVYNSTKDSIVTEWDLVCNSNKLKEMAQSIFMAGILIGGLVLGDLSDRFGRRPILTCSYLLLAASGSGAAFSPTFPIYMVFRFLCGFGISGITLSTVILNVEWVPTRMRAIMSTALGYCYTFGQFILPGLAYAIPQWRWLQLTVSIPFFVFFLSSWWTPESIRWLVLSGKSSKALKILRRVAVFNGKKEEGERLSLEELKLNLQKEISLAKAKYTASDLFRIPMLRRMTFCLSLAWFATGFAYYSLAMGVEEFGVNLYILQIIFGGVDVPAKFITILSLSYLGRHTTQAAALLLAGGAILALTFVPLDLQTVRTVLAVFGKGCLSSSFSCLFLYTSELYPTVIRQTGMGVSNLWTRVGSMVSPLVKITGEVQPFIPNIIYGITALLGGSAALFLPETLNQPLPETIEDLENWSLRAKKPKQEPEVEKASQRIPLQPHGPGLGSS
Kind of data set: Preclinical transporter substrate assessment (unpublished). The format is in vitro ADME.

The target of data set [3] is T2, breast cancer resistance protein (Homo sapiens, UniProt Q9UNQ0).
T2 sequence (Q9UNQ0 1-655): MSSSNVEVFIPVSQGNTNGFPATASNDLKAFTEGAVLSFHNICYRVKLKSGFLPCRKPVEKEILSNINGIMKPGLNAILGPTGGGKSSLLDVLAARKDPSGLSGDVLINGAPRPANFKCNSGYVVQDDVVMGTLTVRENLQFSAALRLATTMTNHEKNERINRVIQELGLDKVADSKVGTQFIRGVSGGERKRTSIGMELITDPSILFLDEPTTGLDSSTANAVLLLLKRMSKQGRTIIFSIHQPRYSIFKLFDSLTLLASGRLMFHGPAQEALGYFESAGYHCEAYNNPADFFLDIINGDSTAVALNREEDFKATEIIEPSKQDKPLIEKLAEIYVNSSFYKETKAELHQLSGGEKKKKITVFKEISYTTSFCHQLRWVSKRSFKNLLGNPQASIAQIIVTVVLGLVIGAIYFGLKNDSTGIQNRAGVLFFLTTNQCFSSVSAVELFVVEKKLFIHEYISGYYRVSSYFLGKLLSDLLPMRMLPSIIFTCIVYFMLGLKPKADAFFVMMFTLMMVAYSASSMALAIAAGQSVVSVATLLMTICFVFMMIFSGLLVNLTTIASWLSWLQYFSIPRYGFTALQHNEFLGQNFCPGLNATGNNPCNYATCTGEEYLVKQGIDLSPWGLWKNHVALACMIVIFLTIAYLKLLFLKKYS
The data set is described as above. The format is in vitro ADME.

[4] abbreviates: mass balance study, unpublished.

Regarding `CS(=O)(=O)n1cc2c(n1)CN([C@@H]1C[C@H](N)[C@@H](c3cc(F)ccc3F)O[C@@H]1C(F)(F)F)C2` [HSK7653], in data set [1] (mass balance study), the “Fecal excretion of unchanged compound” value was determined as 7.40%, the “Unchanged drug excreted by the kidney” value was determined as 68.1% and the “Unrecovered radioactive substances (unknown pathway)” value is listed as 4.1%. In data set [1] (setting [4]), the “Detected (recovered) radioactivity” value came out at 95.9%, the “Unextracted radioactive substrates in feces” value stood at 2.99% and the “Unextracted radioactive substrates in urine” value worked out at 1.99%. Moreover, in data set [1] (sum of unextracted radioactivity in urine and feces), the “Unextracted radioactivity in urine and feces (sum)” value is recorded as “approximately 4.98%”. The “Radioactivity recovered in biliary drainage study” value in data set [2] was “approximately 16.6%”. Besides, the Transporter substrate assessment result on OAT3 is “not a common transport substrate”. The Transporter substrate assessment result in data set [3] is given as “not a common transport substrate”.
